According to US4621145A, “Process for preparing 5-vinyl-2-pyrrolidinone and intermediates therefor” (Merrell Dow Pharmaceuticals Inc., priority 1982, dated 1986):
Blank lines part the entries; values can stand above or below the molecule they belong to.

Experiments:
GABA-T enzyme = assay: Biological activity of 4-amino-5-hexenoic acid enantiomers; conditions: GABA-T inhibition
GABA-T [1] = conditions: reported by Lippert et al. and Bouclier et al.; cited from earlier work
[2] = system: γ-aminobutyric acid transaminase (GABA-T); conditions: background, U.S. Pat. No. 3,960,927 and literature; cited from earlier work
[3] = system: level of γ-aminobutyric acid (GABA) in the CNS; conditions: background; cited from earlier work
GABA-T [4] = assay: Irreversible inhibition of GABA-T in vitro; assay type: biochemical
[5] = system: convulsions and death, induced by mercaptopropionic acid; assay: Protection of mice against effects induced by mercaptopropionic acid; assay type: in vivo; conditions: mercaptopropionic acid 53 mg/kg i.p. 6 hours after
[6] = parameters: species or system rats; conditions: rat, in vivo, po, 100 mg/kg
GABA-T [7] = assay: GABA-T activity in mice brain, test method of Jung et al., J. Neurochemistry; assay type: in vivo; conditions: 4 hours after injection
From the text: (§1) The biochemical and pharmacological effects of 4-aminohex-5-ynoic acid are described in Jung et al., Biochem. and Biophys. Res. Comm., 67, 301 (1975); Jung et al., J. Neurochemistry, 28, 717 (1977); Jung et al., Biochemistry, 17, 2628 (1978); Bouclier et al., Eur. J. Biochem., 98, 363 (1979); Biochem. Pharmacology, 28, 1705 (1979); and Lippert et al., Brain Research Bull., 5, 375 (1980). […] For example, (R)-4-aminohex-5-ynoic acid gave the follow effects on GABA-T activity and GABA concentrations in mice brain using the test method of Jung et al., J. Neurochemistry, supra:
(§2) ^(a) 4 hours after injection of the test compound, i.p.

GABA-T [8] = assay: Irreversible inhibition of GABA-T in vivo
[9] = system: GABA concentrations in mice brain; assay: GABA concentrations in mice brain, test method of Jung et al., J. Neurochemistry; assay type: in vivo; conditions: 4 hours after injection
From the text: as §1, §2

[10] = system: GABA concentration in homogenates of the cortex; assay: Chronic oral experiment in rats: GABA concentration in homogenates of the cortex; assay type: in vivo; conditions: oral daily 100 mg/kg, 24 hours after last dose, vs controls
Protocol: (§3) In a chronic experiment, a group of five rats was given oral daily doses of 100 mg/kg of (R)-4-aminohex-5-ynoic acid. A separate group of animals was used as control. Twenty-four hours after the last dose, the animals were sacrificed and the cortex was dissected from the rest of the brain.

GABA-T [11] = assay: Chronic oral experiment in rats: GABA-T activity in homogenates of brain minus the cortex; assay type: in vivo; conditions: oral daily 100 mg/kg, 24 hours after last dose
Protocol: as §3

[12] = parameters: species or system mice; conditions: mouse, in vivo, ip, 400 mg/kg

biological activity of the enantiomer (GABA-T enzyme): biologically inactive
SMILES: C=C[C@H](N)CCC(=O)O [(R)-4-amino-5-hexenoic acid]

SMILES: C#C[C@@H](N)CCC(=O)O [(S)-4-aminohex-5-ynoic acid]
irreversible inhibition of GABA-T (reported as only active enantiomer) (GABA-T [1]): irreversibly inhibit GABA-T

SMILES: C=CC(N)CCC(=O)O (stereo not drawn) [4-Amino-5-hexenoic acid]
irreversible inhibition of GABA-T [2]: irreversible inhibitor | increase of GABA level in the CNS [3]: capable of increasing the level of γ-aminobutyric acid (GABA) in the CNS

biological activity of the enantiomer (GABA-T enzyme): biologically active
SMILES: C=C[C@@H](N)CCC(=O)O [(S)-4-amino-5-hexenoic acid, (S)-4-Amino-5-hexenoic acid]

SMILES: C#C[C@H](N)CCC(=O)O [(R)-4-aminohex-5-ynoic acid, (R)-4-Aminohex-5-ynoic acid]
irreversible inhibition of GABA-T (GABA-T [4]): irreversible inhibitor of GABA-T | protection against convulsions and death induced by mercaptopropionic acid ([5]; 100 mg/kg i.p.): protect mice against convulsions and death | protection against running fits ([5]; 100 mg/kg i.p.): no protection against running fits | protection against convulsions and death induced by mercaptopropionic acid ([5]; 200 mg/kg i.p.): protect mice against convulsions and death | protection against running fits ([5]; 200 mg/kg i.p.): no protection against running fits | body weight effect [6]: lost body weight | course of body weight and hair loss effects [6]: appeared to disappear during the second week | hair loss [6]: lost hair on their backs | % Inhibition of GABA-T (GABA-T [7]; 25 mg/kg i.p.): 31% | % Inhibition of GABA-T (GABA-T [7]; 50 mg/kg i.p.): 50% | % Inhibition of GABA-T (GABA-T [7]; 100 mg/kg i.p.): 66% | % Inhibition of GABA-T (GABA-T [7]; 200 mg/kg i.p.): 81% | irreversible inhibition of GABA-T (GABA-T [8]): irreversible inhibitor of GABA-T | GABA Concentration % Control ([9]; 25 mg/kg i.p.): 103 % Control | GABA Concentration % Control ([9]; 50 mg/kg i.p.): 125 % Control | GABA Concentration % Control ([9]; 100 mg/kg i.p.): 180 % Control | GABA Concentration % Control ([9]; 200 mg/kg i.p.): 275 % Control | GABA concentration in homogenates of the cortex [10]: approximately doubled | GABA-T activity decrease as compared to controls (GABA-T [11]): 81% | death [12]: dead | sedation [12]: produced sedation | time to sedation [12]: ≤ 30 min
